Experimental data as given in ChEMBL document CHEMBL1201862, “PubChem BioAssay data set” (2004).
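Method: 48-hour compound exposure of cells in 96-well plates, five concentrations, linear interpolation of endpoints. The concentration for 50% growth inhibition is given as GI50.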 The source made the active and inactive calls. Rule as the data show it: active = GI50 up to about 1.1 µM and inactive = higher.

Columns and labels:
Assay in all cases: DTP human tumour cell line panel, 48 h
CAKI-1 = tested on: CAKI-1
COLO 205 = tested on: COLO 205
DMS-273 = tested on: DMS-273
HCT-15 = tested on: HCT-15
HL-60 = tested on: HL-60
IGROV-1 = tested on: IGROV-1
KM12 = tested on: KM12
NCI-H522 = tested on: NCI-H522
OVCAR-3 = tested on: OVCAR-3
RPMI-8226 = tested on: RPMI-8226
SF-268 = tested on: SF-268
SK-MEL-5 = tested on: SK-MEL-5
SN12C = tested on: SN12C
SR = tested on: SR
SW-620 = tested on: SW-620
TK-10 = tested on: TK-10
RXF 393 = tested on: RXF 393
DU-145 = tested on: DU-145
Hs-578T = tested on: Hs-578T
MDA-N = tested on: MDA-N

| Structure (SMILES) | GI50 (CAKI-1) | GI50 (COLO 205) | GI50 (DMS-273) | GI50 (HCT-15) | GI50 (HL-60) | GI50 (IGROV-1) | GI50 (KM12) | GI50 (NCI-H522) | GI50 (OVCAR-3) | GI50 (RPMI-8226) | GI50 (SF-268) | GI50 (SK-MEL-5) | GI50 (SN12C) | GI50 (SR) | GI50 (SW-620) | GI50 (TK-10) | GI50 (RXF 393) | GI50 (DU-145) | GI50 (Hs-578T) | GI50 (MDA-N) |
| --- | --- | --- | --- | --- | --- | --- | --- | --- | --- | --- | --- | --- | --- | --- | --- | --- | --- | --- | --- | --- |
| CC(=O)n1cc(CC(C)O)c(=O)[nH]c1=O (stereo not given) | > 100 µM (inactive) | > 100 µM (inactive) | > 100 µM (inactive) | > 100 µM | > 100 µM (inactive) | > 100 µM (inactive) | > 100 µM (inactive) | > 100 µM (inactive) | > 100 µM (inactive) | > 100 µM (inactive) | > 100 µM (inactive) | > 100 µM (inactive) | 17.1 µM (inactive) | > 100 µM (inactive) | > 100 µM (inactive) | > 100 µM (inactive) |  |  |  |  |
| OC1OC2COC(c3ccccc3)OC2C(O)C1O (stereo not given) | > 100 µM (inactive) | > 100 µM (inactive) | > 100 µM (inactive) | > 100 µM | > 100 µM (inactive) | > 100 µM (inactive) | > 100 µM (inactive) | > 100 µM (inactive) | > 100 µM (inactive) | > 100 µM (inactive) | > 100 µM (inactive) | > 100 µM (inactive) | > 100 µM (inactive) |  | > 100 µM (inactive) | > 100 µM (inactive) |  |  |  |  |
| Cc1ccc(S(=O)(=O)N/N=C(\c2nc3ccc(Cl)cc3[nH]c2=O)C(O)c2ccco2)cc1 (stereo not given) | > 100 µM (inactive) | > 100 µM (inactive) | > 100 µM (inactive) | > 100 µM | 44 µM (inactive) | > 100 µM (inactive) | 66.8 µM (inactive) |  | > 100 µM (inactive) |  | > 100 µM (inactive) | > 100 µM (inactive) |  |  | > 100 µM (inactive) | > 100 µM (inactive) | > 100 µM (inactive) |  |  |  |
| O=C1CCCC(O)=C1SC1=C(O)CCCC1=O | 94.2 µM (inactive) | > 100 µM (inactive) | > 100 µM (inactive) | 47.2 µM | > 100 µM (inactive) | > 100 µM (inactive) | > 100 µM (inactive) | > 100 µM (inactive) | > 100 µM (inactive) | > 100 µM (inactive) | > 100 µM (inactive) | > 100 µM (inactive) | 74 µM (inactive) |  | > 100 µM (inactive) | > 100 µM (inactive) | > 100 µM (inactive) |  |  |  |
| Ic1ncnc2c1ncn2C1CCCO1 (stereo not given) | > 100 µM (inactive) | > 100 µM (inactive) | > 100 µM (inactive) | > 100 µM | > 100 µM (inactive) | > 100 µM (inactive) | > 100 µM (inactive) | > 100 µM (inactive) | > 100 µM (inactive) | > 100 µM (inactive) | > 100 µM (inactive) | > 100 µM (inactive) | > 100 µM (inactive) | > 100 µM (inactive) | > 100 µM (inactive) | > 100 µM (inactive) |  |  |  |  |
| CC1=C(C(=O)NCc2ccccc2)C(c2ccccc2[N+](=O)[O-])C(C(=O)NCc2ccccc2)=C(C)N1 | 21.3 µM (inactive) | 18.7 µM (inactive) | 10.6 µM (inactive) | 7.8 µM | 3.31 µM (inactive) | 18.4 µM (inactive) | 10.4 µM (inactive) |  | 5.31 µM (inactive) |  | 9.18 µM (inactive) | 13.1 µM (inactive) | 12 µM (inactive) | 5.13 µM (inactive) | 14.5 µM (inactive) | 17.6 µM (inactive) | 10.6 µM (inactive) |  |  |  |
| C[N+]1(C)C/C(=C/c2ccc(F)cc2)C(=O)/C(=C\c2ccc(F)cc2)C1 |  | 60.7 µM (inactive) | 30.6 µM (inactive) | > 100 µM | 17.3 µM (inactive) | 26.1 µM (inactive) | 67.8 µM (inactive) | 16.6 µM (inactive) | 45.5 µM (inactive) | 24.4 µM (inactive) | 23.3 µM (inactive) |  | 2.14 µM (inactive) |  | 75.9 µM (inactive) | > 100 µM (inactive) | > 100 µM (inactive) |  |  |  |
| O=[N+]([O-])c1cccc(-c2oc(/C=N/c3ccccc3)c([N+](=O)[O-])c2-c2cccc([N+](=O)[O-])c2)c1 |  | > 100 µM (inactive) | > 100 µM (inactive) |  | > 100 µM (inactive) | > 100 µM (inactive) | > 100 µM (inactive) | > 100 µM (inactive) | > 100 µM (inactive) | > 100 µM (inactive) | > 100 µM (inactive) | > 100 µM (inactive) |  |  | > 100 µM (inactive) | > 100 µM (inactive) | > 100 µM (inactive) |  |  |  |
| CC(C)(C)c1ccc2c(c1)S(=O)(=O)Nc1cccc(c1)NS(=O)(=O)c1cc(C(C)(C)C)ccc1OCCOCCO2 | > 100 µM (inactive) | > 100 µM (inactive) | > 100 µM (inactive) | > 100 µM |  | > 100 µM (inactive) | > 100 µM (inactive) |  | > 100 µM (inactive) | 23.6 µM (inactive) | > 100 µM (inactive) | > 100 µM (inactive) | > 100 µM (inactive) |  | > 100 µM (inactive) | > 100 µM (inactive) | 6.49 µM (inactive) |  |  |  |
| NS(=O)(=O)c1ccc(/N=N/c2cccnc2O)cc1 | > 100 µM (inactive) | > 100 µM (inactive) |  | > 100 µM | > 100 µM (inactive) | > 100 µM (inactive) | > 100 µM (inactive) | > 100 µM (inactive) | > 100 µM (inactive) | > 100 µM (inactive) | > 100 µM (inactive) | > 100 µM (inactive) | > 100 µM (inactive) | > 100 µM (inactive) | > 100 µM (inactive) | > 100 µM (inactive) | > 100 µM (inactive) | > 100 µM (inactive) | > 100 µM (inactive) | > 100 µM (inactive) |
| [O-][N+]1(CC[N+]2([O-])CCCCC2)CCCCC1 | > 100 µM (inactive) | > 100 µM (inactive) |  | > 100 µM | > 100 µM (inactive) | > 100 µM (inactive) | > 100 µM (inactive) | > 100 µM (inactive) | > 100 µM (inactive) | > 100 µM (inactive) | > 100 µM (inactive) | > 100 µM (inactive) | > 100 µM (inactive) | > 100 µM (inactive) | > 100 µM (inactive) | > 100 µM (inactive) | > 100 µM (inactive) | > 100 µM (inactive) | > 100 µM (inactive) | > 100 µM (inactive) |
| Cc1ccc(/C=C2\CCC/C(=C\c3ccc(O)c(CN4CCCCC4)c3)C2=O)cc1 | 14.6 µM (inactive) | 5.2 µM (inactive) |  | 3.02 µM | 3.52 µM (inactive) | 8.02 µM (inactive) | 3.01 µM (inactive) | 3.85 µM (inactive) | 10.9 µM (inactive) | 5.08 µM (inactive) | 3.14 µM (inactive) | 6.1 µM (inactive) | 9.82 µM (inactive) | 3.71 µM (inactive) | 3.6 µM (inactive) | 14.6 µM (inactive) | 14.1 µM (inactive) | 4.91 µM (inactive) | 7.78 µM (inactive) | 4.22 µM (inactive) |
| O=C1c2c(ccc3c2CCCC3)CC12Cc1ccccc1C2 | 7.62 µM (inactive) | 15.1 µM (inactive) |  | 4.75 µM | 11.2 µM (inactive) | 30.2 µM (inactive) | 16.4 µM (inactive) | 12.8 µM (inactive) | 9.93 µM (inactive) | 4.35 µM (inactive) | 43.2 µM (inactive) | 6.19 µM (inactive) | 21.8 µM (inactive) | 4.57 µM (inactive) | 4.88 µM (inactive) | 28 µM (inactive) | 11 µM (inactive) | 22.3 µM (inactive) | 22.5 µM (inactive) | 6.43 µM (inactive) |
| CC(C)[Si](Oc1cc2c3c(ccc2c(O)c1[C@@H](C)CO[Si](C)(C)C(C)(C)C)C(C)(C)CCC3)(C(C)C)C(C)C | > 100 µM (inactive) | > 100 µM (inactive) |  | > 100 µM | 17.6 µM (inactive) | 87.5 µM (inactive) | > 100 µM (inactive) | 39.5 µM (inactive) | 86.1 µM (inactive) | 49.8 µM (inactive) | > 100 µM (inactive) | 23.8 µM (inactive) | > 100 µM (inactive) | 51.5 µM (inactive) | > 100 µM (inactive) | > 100 µM (inactive) | > 100 µM (inactive) | > 100 µM (inactive) | > 100 µM (inactive) | > 100 µM (inactive) |
| COc1ccc(C2=Nn3c(nc4sc(C)c(C)c4c3=O)SC2)cc1 | > 100 µM (inactive) | > 100 µM (inactive) |  | > 100 µM | > 100 µM (inactive) | > 100 µM (inactive) | > 100 µM (inactive) | > 100 µM (inactive) | > 100 µM (inactive) | > 100 µM (inactive) | > 100 µM (inactive) | > 100 µM (inactive) | > 100 µM (inactive) | > 100 µM (inactive) | > 100 µM (inactive) | > 100 µM (inactive) | > 100 µM (inactive) | > 100 µM (inactive) | > 100 µM (inactive) | > 100 µM (inactive) |
| COc1cc([C@@H]2c3cc4c(cc3[C@@H](/N=C/c3ccc(C(=O)O[C@H]5C[C@H]6OC[C@@]6(OC(C)=O)[C@H]6[C@H](OC(=O)c7ccccc7)[C@]7(O)C[C@H](OC(=O)[C@H](OC(=O)c8ccc(/C=N/[C@@H]9c%10cc%11c(cc%10[C@@H](c%10cc(OC)c(O)c(OC)c%10)[C@H]%10C(=O)OC[C@@H]%109)OCO%11)cc8)[C@@H](NC(=O)c8ccccc8)c8ccccc8)C(C)=C([C@@H](OC(C)=O)C(=O)[C@]56C)C7(C)C)cc3)C3COC(=O)C32)OCO4)cc(C)c1O (stereo not given in full) | 12.8 µM (inactive) | 19.6 µM (inactive) |  | 19.2 µM | > 13.9 µM (inactive) | 14.7 µM (inactive) | 22.3 µM (inactive) | 9.06 µM (inactive) | 6.85 µM (inactive) | > 50 µM (inactive) | > 31.5 µM (inactive) | 5.28 µM (inactive) | 18.8 µM (inactive) | 8.02 µM (inactive) | 13.4 µM (inactive) | > 50 µM (inactive) | 2.96 µM (inactive) | 24.5 µM (inactive) | > 46 µM (inactive) | 1.82 µM (inactive) |
